Measured values taken from patent US20250288568A1, “NEW CRYSTAL FORM OF A PDE4 INHIBITOR” (CHIESI FARMACEUTICI S.P.A., priority 2022, published 2025).
≈ marks a conversion by molar mass, not a printed value.

Columns and labels:
[1] = Solubility in Simulated Lung Fluid (SLF), saturation shake-flask method; format: physicochemical; settings: for solubility at 0.5 h / solubility at 1 h / solubility at 3 h: simulated lung fluid (SLF), aqueous with cosolvent or surfactant or cyclodextrin, thermodynamic from solid, SLF with 0.02% v/v Tween 80, pH 6.5, 37° C.
Procedure: A study of solubility in SLF for the characterization of the crystal Form 2 and crystal Form A of the compound of formula (I), was performed. The use of SLF, that mimics the physiologically lung fluid, can give a good understanding of the dissolution mechanism and possible in vivo behavior of a product, enhancing the predictive capability of the dissolution testing in terms of bioavailability and therapeutic effectiveness.
The experimental method used is based on saturation shake-flask method. The samples were prepared by adding, respectively, an excess of the crystal Form 2 of the compound of formula (I) and an excess of the crystal Form A of the compound of formula (I), to the solubility medium SLF. The solubility concentration value is the thermodynamic equilibrium concentration, determined by assaying the solute concentration of the filtrate from a saturated solution, using an analytical method by UPLC-MS (MRM quantification; calibration: from 0.01 to 10 μg/ml; every batch have been tested in duplicate and samples have been filtered and diluted 1/10 in duplicate).
The SLF used for the tests were prepared analogously to literature (Simulated Biological Fluids with Possible Application in Dissolution Testing, Dissolution Technologies, 2011, dx.doi.org/10.14227/DT180311P15, table 11, page 2215). To mimic better the lung fluid, a surfactant, particularly Tween 80, has been added (0.02% v/v).
The solubility profile of the crystal Form 2 and the crystal Form A of the compound of formula (I) was determined in SLF adjusted with acetic acid (1M) to pH of 6.5, in order to simulate an inflammation condition in the lung. The experiment was conducted at 37° C.
The following experimental conditions were applied for the SLF dissolution profile study respectively for the crystal Form 2 and the crystal Form A of the compound of formula (I). About 2.5 mg of the crystal Form 2 or the crystal Form A of the compound of formula (I) was dispersed in 2.5 ml of SLF with stirring system. The concentration of material in solution was determined after 0.5, 1 and 3 hours. In each time interval, the vessel stirring was stopped, and 180-250 μl of each samples have been collected and filtered by RC Membrane Syringe Filters 0.45 μm and injected in UPLC apparatus.

[2] = Lung PK after intratracheal administration to Sprague-Dawley rats (PreciseInhale system); format: in vivo; settings: rat, inhaled or intranasal, male Sprague-Dawley rats, 10 μg/lung deposited dose
Procedure: Crystal Form 2 of the compound of formula (I) was intratracheally administered to Sprague-Dawley rats using the PreciseInhale system at the dose of 10 μg/lung deposited dose. Powder aerosols was generated using 40 bar generating pressure. A total number of 24 Sprague-Dawley male rats was used for PK investigation; 8 time points for each study, n=3 rats/time point. Before administration, rats were anesthetized with sevoflurane and endotracheally intubated using appropriate steel catheters. Aerosol administration was performed connecting the catheter to the PreciseInhale system, previously set to deliver 10 μg/lung deposited dose to each animal.
Lung t1/2 is the terminal half-life, calculated by the formula ln(2)/λz, where λz is the first-order rate constant associated with the terminal (log-linear) portion of the curve. Estimated by linear regression of time vs. log concentration; i.e. the time it takes for the concentration of the drug in the lung to be reduced by 50%.
Lung MRTlast is the mean residence time from the time of dosing to the time of the last measurable concentration; i.e. the average time a molecule stays in the lung.

Compound | Higher solubility in SLF with respect to the crystal Form A ([1]; crystal Form 2 vs crystal Form A, SLF, at 0.5, 1 and 3 hours) | solubility at 0.5 h [1] | solubility at 1 h [1] | solubility at 3 h [1] | MRT last ([2]; mean residence time to last measurable concentration, read-out: Lung MRTlast) | half-life ([2]; terminal half-life in lung, read-out: Lung t1/2 (converted))
CS(=O)(=O)Nc1ccc(C(=O)O[C@@H](Cc2c(Cl)c[n+]([O-])cc2Cl)c2ccc(OC(F)F)c(OCC3CC3)c2)cc1OCC1CC1 (single isomer, unassigned) [Crystal Form 2] | at least 4.5 fold | 0.74 µg/mL (≈ 1.08 µM) | 0.89 µg/mL (≈ 1.29 µM) | 0.88 µg/mL (≈ 1.28 µM) | 9.4 h | 7.7 h
CS(=O)(=O)Nc1ccc(C(=O)O[C@@H](Cc2c(Cl)c[n+]([O-])cc2Cl)c2ccc(OC(F)F)c(OCC3CC3)c2)cc1OCC1CC1 [Crystal Form A, 3,5-dichloro-4-[(2S)-2-[3-(cyclopropylmethoxy)-4-(difluoromethoxy)phenyl]-2-{[3-(cyclopropylmethoxy)-4-(methanesulfonamido)benzoyl]oxy}ethyl]pyridine1-oxide, reference compound] | – | 0.16 µg/mL (≈ 0.233 µM) | 0.18 µg/mL (≈ 0.262 µM) | 0.2 µg/mL (≈ 0.291 µM) | – | –
